# Experimental data: PubChem BioAssay (NCI)
#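 A five-concentration, 48-hour dose response in 96-well plates underlies each endpoint, interpolated linearly between surrounding concentrations. At the GI50, growth is halved. TGI marks complete inhibition of growth.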
# What was measured:
# Assay in all cases: NCI tumour cell line growth inhibition, 48 h
# OVCAR-8 ovarian = test system: OVCAR-8 ovarian
# UO-31 renal = test system: UO-31 renal
# KM12 colon = test system: KM12 colon
# U251 CNS = test system: U251 CNS
# OVCAR-4 ovarian = test system: OVCAR-4 ovarian
# NCI-H23 lung = test system: NCI-H23 lung
# 786-0 renal = test system: 786-0 renal
# SK-MEL-28 melanoma = test system: SK-MEL-28 melanoma
# A549 NSCLC = test system: A549 NSCLC
# HOP-62 NSCLC = test system: HOP-62 NSCLC
# HCT-15 colon = test system: HCT-15 colon
# SNB-19 CNS = test system: SNB-19 CNS
# ACHN renal = test system: ACHN renal
# TK-10 renal = test system: TK-10 renal
# HS 578T breast = test system: HS 578T breast
# M14 melanoma = test system: M14 melanoma
# PC-3 prostate = test system: PC-3 prostate
# T-47D breast = test system: T-47D breast
# CCRF-CEM leukemia = test system: CCRF-CEM leukemia
# OVCAR-3 ovarian = test system: OVCAR-3 ovarian
# RPMI-8226 leukemia = test system: RPMI-8226 leukemia
# BT-549 breast = test system: BT-549 breast
# OVCAR-5 ovarian = test system: OVCAR-5 ovarian
# COLO 205 colon = test system: COLO 205 colon
# MALME-3M melanoma = test system: MALME-3M melanoma
# SF-268 CNS = test system: SF-268 CNS
# SN12C renal = test system: SN12C renal
# UACC-62 melanoma = test system: UACC-62 melanoma
# SK-OV-3 ovarian = test system: SK-OV-3 ovarian
# HCC-2998 colon = test system: HCC-2998 colon
# HT29 colon = test system: HT29 colon
# UACC-257 melanoma = test system: UACC-257 melanoma
# NCI/ADR-RES ovarian = test system: NCI/ADR-RES ovarian
# MCF7 breast = test system: MCF7 breast
# HL-60(TB) leukemia = test system: HL-60(TB) leukemia
# NCI-H226 lung = test system: NCI-H226 lung
# HCT-116 colon = test system: HCT-116 colon
# MDA-MB-231 breast = test system: MDA-MB-231 breast
# K-562 leukemia = test system: K-562 leukemia
# SF-295 CNS = test system: SF-295 CNS
# MDA-MB-435 = test system: MDA-MB-435
# EKVX NSCLC = test system: EKVX NSCLC
# HOP-92 NSCLC = test system: HOP-92 NSCLC
# NCI-H522 lung = test system: NCI-H522 lung
# SK-MEL-2 melanoma = test system: SK-MEL-2 melanoma
# SF-539 CNS = test system: SF-539 CNS
# RXF 393 renal = test system: RXF 393 renal
# A498 renal = test system: A498 renal
# LOX IMVI melanoma = test system: LOX IMVI melanoma
# SK-MEL-5 melanoma = test system: SK-MEL-5 melanoma
# SNB-75 CNS = test system: SNB-75 CNS
# SR leukemia = test system: SR leukemia
structure (smiles),measurement,setting,value
CC(C)[C@]12O[C@H]1[C@@H]1O[C@]13[C@]1(O[C@H]1C[C@H]1C4=C(CC[C@@]13C)C(=O)OC4)[C@@H]2OC(=O)CN(C)C,GI50,OVCAR-8 ovarian,33.6 nM
same,TGI,OVCAR-8 ovarian,> 100000 nM
same,GI50,UO-31 renal,14.6 nM
same,TGI,UO-31 renal,> 100000 nM
same,GI50,KM12 colon,208 nM
same,TGI,KM12 colon,2640 nM
same,GI50,U251 CNS,48.8 nM
same,TGI,U251 CNS,> 100000 nM
same,GI50,OVCAR-4 ovarian,32.6 nM
same,TGI,OVCAR-4 ovarian,> 46200 nM
same,GI50,NCI-H23 lung,11.6 nM
same,GI50,786-0 renal,32.6 nM
same,TGI,786-0 renal,> 100000 nM
same,GI50,SK-MEL-28 melanoma,20.7 nM
same,TGI,SK-MEL-28 melanoma,61.5 nM
same,GI50,A549 NSCLC,58.7 nM
same,GI50,HOP-62 NSCLC,31.4 nM
same,GI50,HCT-15 colon,29.1 nM
same,TGI,HCT-15 colon,> 100000 nM
same,GI50,SNB-19 CNS,286 nM
same,TGI,SNB-19 CNS,> 100000 nM
same,GI50,ACHN renal,21 nM
same,TGI,ACHN renal,> 100000 nM
same,GI50,TK-10 renal,48 nM
same,TGI,TK-10 renal,> 100000 nM
same,GI50,HS 578T breast,22.7 nM
same,TGI,HS 578T breast,88.9 nM
same,GI50,M14 melanoma,17 nM
same,TGI,M14 melanoma,37.3 nM
same,GI50,PC-3 prostate,21.8 nM
same,TGI,PC-3 prostate,> 100000 nM
same,GI50,T-47D breast,34 nM
same,TGI,T-47D breast,> 100000 nM
same,GI50,CCRF-CEM leukemia,31.5 nM
same,GI50,OVCAR-3 ovarian,20.8 nM
same,TGI,OVCAR-3 ovarian,63.3 nM
same,GI50,RPMI-8226 leukemia,18.1 nM
same,TGI,RPMI-8226 leukemia,> 100000 nM
same,GI50,BT-549 breast,18.4 nM
same,TGI,BT-549 breast,56.4 nM
same,GI50,OVCAR-5 ovarian,49.1 nM
same,TGI,OVCAR-5 ovarian,> 100000 nM
same,GI50,COLO 205 colon,17 nM
same,TGI,COLO 205 colon,42.4 nM
same,GI50,MALME-3M melanoma,19.3 nM
same,TGI,MALME-3M melanoma,73.3 nM
same,GI50,SF-268 CNS,37 nM
same,TGI,SF-268 CNS,367 nM
same,GI50,SN12C renal,30.9 nM
same,TGI,SN12C renal,> 100000 nM
same,GI50,UACC-62 melanoma,22.8 nM
same,TGI,UACC-62 melanoma,72.4 nM
same,GI50,SK-OV-3 ovarian,48.5 nM
same,TGI,SK-OV-3 ovarian,> 100000 nM
same,GI50,HCC-2998 colon,10.2 nM
same,TGI,HCC-2998 colon,44 nM
same,GI50,HT29 colon,17.9 nM
same,TGI,HT29 colon,> 100000 nM
same,GI50,UACC-257 melanoma,17.5 nM
same,TGI,UACC-257 melanoma,56.3 nM
same,GI50,NCI/ADR-RES ovarian,48.1 nM
same,TGI,NCI/ADR-RES ovarian,> 100000 nM
same,GI50,MCF7 breast,22 nM
same,TGI,MCF7 breast,> 100000 nM
same,GI50,HL-60(TB) leukemia,15.3 nM
same,TGI,HL-60(TB) leukemia,118 nM
same,GI50,NCI-H226 lung,19.1 nM
same,TGI,NCI-H226 lung,178 nM
same,GI50,HCT-116 colon,12.8 nM
same,TGI,HCT-116 colon,> 100000 nM
same,GI50,MDA-MB-231 breast,57.8 nM
same,TGI,MDA-MB-231 breast,> 100000 nM
same,GI50,K-562 leukemia,28.3 nM
same,TGI,K-562 leukemia,> 100000 nM
same,GI50,SF-295 CNS,77.7 nM
same,TGI,SF-295 CNS,> 100000 nM
same,GI50,MDA-MB-435,17.6 nM
same,TGI,MDA-MB-435,74.8 nM
same,GI50,EKVX NSCLC,110 nM
same,TGI,EKVX NSCLC,> 100000 nM
same,GI50,HOP-92 NSCLC,38.3 nM
same,GI50,NCI-H522 lung,21.6 nM
same,TGI,NCI-H522 lung,110 nM
same,GI50,SK-MEL-2 melanoma,26.7 nM
same,TGI,SK-MEL-2 melanoma,73.2 nM
same,GI50,SF-539 CNS,41.1 nM
same,TGI,SF-539 CNS,332 nM
same,GI50,RXF 393 renal,15.7 nM
same,TGI,RXF 393 renal,33.6 nM
same,GI50,A498 renal,16.1 nM
same,TGI,A498 renal,48.3 nM
same,GI50,LOX IMVI melanoma,10.1 nM
same,TGI,LOX IMVI melanoma,> 100000 nM
same,GI50,SK-MEL-5 melanoma,15.2 nM
same,TGI,SK-MEL-5 melanoma,39.6 nM
same,GI50,SNB-75 CNS,28.6 nM
same,TGI,SNB-75 CNS,141 nM
same,GI50,SR leukemia,14.3 nM
same,TGI,SR leukemia,189 nM
